In general, IC50 refers to the point on the concentration scale where inhibition reaches its midpoint. By % Inhibition is commonly meant the share of the control response that was lost under treatment.

Values joined by “and” are separate entries in the source; they are usually repeats but may differ in a detail not shown here. Equal values may be shown once.

We go through nine molecules from patent US7897781B2, “Cold menthol receptor-1 antagonists” (Janssen Pharmaceutica NV, priority 2006, dated 2011).

For one assay, the system named is Sprague-Dawley rats. Kind of assay: CFA-induced paw radiant heat hypersensitivity. It is filed as in vivo, rat. Conditions: 30 mg/kg p.o. The method, then: Intraplantar injection of Complete Freund's Adjuvant (CFA) in rodents results in a long-lasting inflammatory reaction, characterized by a pronounced hypersensitivity to both thermal and mechanical stimuli. This hypersensitivity peaks between 24-72 hours following injection and can last for several weeks. […] This paradigm also may be conducted with a multiple dosing or a prophylactic dosing regime designed to alter the course of hyperalgesia development. This test predicts the analgesic, anti-allodynic and antihyperalgesic effect of numerous effective clinical agents, including NSAIDS such as acetaminophen, aspirin and ibuprofen, and opioids such as morphine.
Each rat was placed in a test chamber on a warm glass surface and allowed to acclimate for approximately 10 minutes. A radiant thermal stimulus (beam of light) was then focused through the glass onto the plantar surface of each hind paw in turn. The thermal stimulus was automatically shut off by a photoelectric relay when the paw was moved or when the cut-off time was reached (20 seconds for radiant heat at ˜5 Amps). An initial (baseline) response latency to the thermal stimulus was recorded for each animal prior to the injection of CFA. Twenty-four hours following intraplantar CFA injection, the response latency of the animal to the thermal stimulus was then re-evaluated and compared to the animal's baseline response time. […] Immediately following the post-CFA latency assessment, test compound or vehicle (usually Solutol, hydroxypropyl methylcellulose, hydroxypropyl beta-cyclodextrin or PEG-400) was administered i.p. or p.o. to rats. […] The percent reversal (% R) of hypersenstivitiy was calculated according to the following formula: % Reversal=(Treatment Response−CFA Response)/(Baseline Response−CFA Response)×100.

In assay [1] the target is T1, canine TRPM8 (Canis lupus familiaris, UniProt Q1A7N1).
T1 construct: expressed in transfected cells
T1 sequence (Q1A7N1 1-1104): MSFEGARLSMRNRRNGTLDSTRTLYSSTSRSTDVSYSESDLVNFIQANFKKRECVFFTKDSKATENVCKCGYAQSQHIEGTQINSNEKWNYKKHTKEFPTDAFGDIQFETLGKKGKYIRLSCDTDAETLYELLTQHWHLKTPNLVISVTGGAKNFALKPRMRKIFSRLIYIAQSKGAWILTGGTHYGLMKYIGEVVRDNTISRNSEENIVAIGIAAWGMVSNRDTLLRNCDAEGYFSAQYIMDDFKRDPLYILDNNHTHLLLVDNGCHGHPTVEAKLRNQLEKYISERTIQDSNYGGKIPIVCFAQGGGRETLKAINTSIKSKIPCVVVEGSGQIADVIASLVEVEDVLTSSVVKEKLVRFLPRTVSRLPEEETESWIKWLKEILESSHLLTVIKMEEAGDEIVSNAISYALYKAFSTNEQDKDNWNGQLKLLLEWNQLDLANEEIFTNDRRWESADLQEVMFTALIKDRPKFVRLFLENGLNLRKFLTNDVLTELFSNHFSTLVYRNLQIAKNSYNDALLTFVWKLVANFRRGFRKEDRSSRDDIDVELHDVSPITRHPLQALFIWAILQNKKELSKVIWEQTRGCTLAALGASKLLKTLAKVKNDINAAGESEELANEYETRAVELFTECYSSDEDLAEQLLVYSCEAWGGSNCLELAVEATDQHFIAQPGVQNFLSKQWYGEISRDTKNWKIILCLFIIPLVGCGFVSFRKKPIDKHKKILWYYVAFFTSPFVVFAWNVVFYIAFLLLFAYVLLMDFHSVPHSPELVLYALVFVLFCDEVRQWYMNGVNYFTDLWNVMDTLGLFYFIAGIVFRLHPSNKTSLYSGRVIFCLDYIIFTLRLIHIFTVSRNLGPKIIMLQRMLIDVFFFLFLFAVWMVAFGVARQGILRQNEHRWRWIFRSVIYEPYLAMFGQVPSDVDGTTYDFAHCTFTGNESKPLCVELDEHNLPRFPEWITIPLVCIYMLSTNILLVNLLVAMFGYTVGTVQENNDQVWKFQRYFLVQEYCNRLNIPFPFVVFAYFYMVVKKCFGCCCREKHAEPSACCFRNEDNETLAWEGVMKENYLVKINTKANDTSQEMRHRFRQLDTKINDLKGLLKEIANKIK
Kind of assay: In vitro canine TRPM8 functional assay (Ca2+-sensitive dye, icilin activation; Table 4 TRPM8 Screening). Particulars: HEK293 cells expressing canine TRPM8, icilin activation; for % I (0.5 μM): compound at 0.5 μM. It is filed as cell-based. The method, then:
The functional activity of compounds of Formula (I) was determined by measuring changes in intracellular calcium concentration using a Ca^2+-sensitive fluorescent dye. The changes in fluorescent signal were monitored by a fluorescence plate reader, either a FLIPR™ (Molecular Devices) or FDSS (Hamamatsu).
HEK293 cells stably expressing canine TRPM8 were routinely grown as monolayers in Dulbecco's minimum essential medium supplemented with 10% FBS, 1 mM L-glutamine, 100 units/mL penicillin, 100 ug/mL streptomycin and 400 μg/mL G418. Cells were maintained in 5% CO2 at 37° C. At 24 hrs prior to assay, cells were seeded in clear-base poly-D-lysine coated 384-well plates (BD Biosciences, NJ, USA) at a density of 5,000 cells per well in culture medium and grown overnight in 5% CO2 at 37° C. On assay day, growth media was removed and cells were loaded with Calcium 3 Dye (Molecular Devices) for 35 min at 37° C., under 5% CO2 and then for 25 min at room temperature and atmosphere. Subsequently, cells were tested for agonist-induced increases in intracellular Ca^2+ levels using FLIPR™ or FDSS. Cells were challenged with a compound of Formula (I) (at varying concentrations) and intracellular Ca^2+ was measured for 5 min prior to the addition of icilin to all wells to achieve a final concentration which produces approximately an 80% maximal response.
Basal FI was subtracted prior to normalizing data to percent of maximal response. Curves were generated using the average of quadruplicate wells for each data point, were analyzed using nonlinear regression of either sigmoidal dose response or sigmoidal dose response (variable slope). Finally, the EC50 and IC50 values were calculated with the best-fit dose curve determined by GraphPad Prism.

The test system of a further assay is rats. Kind of assay: Reversal of icilin-induced behaviors in rats. Conditions: 30 mg/kg p.o., 1 h post-icilin. The format is in vivo, rat. The method, then:
In this paradigm, icilin-induced shaking was counted for 10 minutes followed by administration of a compound of Formula (I). The diminution of shaking behavior is represented as a percent inhibition relative to icilin-induced shakes in the absence of test compound administration, as described by the following formula: % Inhibition=[1−(WDS count following test compound dose/WDS count prior to test compound dose)]×100.

The test system of a further assay is male SD rats. Kind of assay: Chronic constriction injury (CCI)-induced model of neuropathic pain, acetone-induced hypersensitivity. The format is in vivo, rat. Conditions: 30 mg/kg p.o., preRx 1 hr. The method, then: Through the mesh floor a series of five applications of acetone (0.05 mL/application) was sprayed onto the bottom of the paw using a multidose syringe device. A positive response took the form of an abrupt withdrawal or lifting of the paw. The percentage of positive responses from the five trials represented the individual's overall response that was then averaged over the entire treatment group. […] An ascending dose response relationship (as in Table 10 below) was generated by addition of successive doses of test compound followed by re-assessment of behavior.

The target in assay [2] is T1, canine TRPM8. Kind of assay: TRPM8 patch clamp assays. The format is cell-based. Particulars: whole-cell patch clamp, HEK293. The protocol:
For patch clamp experiments, HEK293 cells stably transfected with canine TRPM8 were cultured in DMEM supplemented with 10% fetal bovine serum, 100 units/ml penicillin, 100 μg/ml streptomycin and 1 mg/ml G418. Cells were maintained at 37° C. and in 5% CO2.
The extracellular solution contained (in mM): NaCl, 132; EGTA, 1; KCl, 5.4; MgCl2, 0.8; HEPES, 10; glucose, 10; pH=7.4. Recordings were performed using the conventional whole-cell patch clamp technique, 1-2 days after plating cells onto glass coverslips at densities appropriate for single cell recording. Currents were amplified by a patch clamp amplifier and filtered at 2 kHz (Axopatch 200B, Molecular Devices, Union City, Calif.). Menthol (100 μM) was applied to the cell at 0.5 ml/min via a gravity-fed perfusion system. […]
In experiments where temperatures were varied, temperature ramps were generated by cooling the perfusate in an in-line cooler (Model SC-20, Warner Instruments, Hamden, Conn.) controlled by a temperature controller (Model CL-100, Warner Instruments). The temperature in the vicinity of the recorded cell was measured with a custom-made miniature thermo-microprobe connected to a monitoring thermometer (Model TH-8, Physitemp, Clifton, N.J.), and sampled using Digidata 1322A and pClamp 9.0 (Molecular Devices), as were the currents concurrently measured in the whole-cell patch clamp mode. […]

Take `CCOP(=O)(OCC)C(Cc1ccc(F)c(Cl)c1)c1sc2ccccc2c1Br` (racemic) [Cpd 244]: the “% Reversal” value in the assay on Sprague-Dawley rats (time 2 h) amounted to 45%. As for `CCOP(=O)(OCC)C(Cc1ccc(F)c(C(F)(F)F)c1)c1sc2ccccc2c1Cl` (racemic) [Cpd 298], on canine TRPM8 [1], the “% I (0.5 μM)” value came out at 99%. The “% Reversal” value with Sprague-Dawley rats (time 1 h) is reported as 20%. As for `CC(C)OP(=O)(OC(C)C)C(Cc1ccc(F)cc1)c1sc2ccccc2c1Br` (centres unmarked) [Cpd 197], on canine TRPM8 [1] (compound at 1 μM), the “% I (1 μM)” value is given as 100%. Further, in the assay on Sprague-Dawley rats (time 2 h), the “% Reversal” value is on record as 23%. Regarding “(S)-[1-(3-Bromo-benzo[b]thiophen-2-yl)-2-(4-trifluoromethoxy-phenyl)-ethyl]-phosphonic acid diisopropyl ester [Cpd 236]”, in the assay on Sprague-Dawley rats (time 2 h), the “% Reversal” value is on record as 25%.

As to `CC(C)OP(=O)(OC(C)C)C(Cc1ccc(C(F)(F)F)cc1)c1sc2ccccc2c1Br` (centres unmarked) [Cpd 336], the “% Reversal” value in the assay with Sprague-Dawley rats (time 1 h) was determined as 64%.

For the molecule “(S)-[1-(3-Bromo-benzo[b]thiophen-2-yl)-2-(4-fluoro-phenyl)ethyl]-phosphonic acid diisopropyl ester [Cpd 239]”, the “% I (0.5 μM)” value on canine TRPM8 [1] is recorded as 103, 103%. Moreover, the IC50 against canine TRPM8 [1] (eight-point dose-response) is 37 nM and 27 nM and 31 nM; on canine TRPM8 [2] (read-out: Cold (10° C.) IC50, mode of activation cold 10° C.) it was 5.8 nM; on canine TRPM8 [2] (read-out: Menthol (100 μM) IC50, mode of activation menthol 100 μM, 22° C.) it was 3 nM. Also, the “% Inhibition” value in the assay with rats is reported as 48.4%. The “% Reversal” value in the assay with Sprague-Dawley rats (time 2 h) is 36%. Besides, the “% of Allodynic Baseline” value in the assay on male SD rats stood at 29.4%.

`CC(C)OP(=O)(OC(C)C)C(Cc1cc(C(F)(F)F)ccc1F)c1sc2ccccc2c1Br` (centres unmarked) [Cpd 335]: in the assay with Sprague-Dawley rats (time 1 h), the “% Reversal” value was 0%. On the same count and under the same terms, to `CC(C)OP(=O)(OC(C)C)C(Cc1ccc(Cl)c(F)c1)c1sc2ccccc2c1Br` (centres unmarked) [Cpd 190] belongs 45%; to `CCOP(=O)(OCC)C(Cc1ccc(SC)cc1)c1sc2ccccc2c1Cl` (racemic) [Cpd 299], 23%.
